According to patent US20250084091A1, “INHIBITORS OF SARS-COV-2” (The Texas A&M University System, priority 2021, published 2025):
Where two headings read alike, the source gives them in different places.

Experiments:
[1] = system: HeLa-ACE2 cells; assay: cells; format: cell-based; conditions: Table 2, total cell count in infected plates
[2] = system: SARS-CoV-2 (strain USA-WA1/2020); assay: microbe, parasite or virus in culture; format: cell-based
[3] = target: SARS-CoV-2 main protease (Mpro) (Severe acute respiratory syndrome coronavirus 2, UniProt P0DTD1); assay: biochemical
[4] = Uninfected host cell cytotoxicity counter screen; format: cell-based; conditions: human
Protocol: Uninfected host cell cytotoxicity counter screen: HeLa-ACE2 cells were maintained as described for the infection assay and seeded in the assay-ready plates at 400 cells/well. Plates were incubated for 24 hours at 37° C. 5% CO2. To assess cell viability, the Image-iT DEAD green reagent was used according to manufacturer instructions. Cells were fixed with 4% paraformaldehyde, and counterstained with DAPI. Fixed cells are imaged as described above.
Viral replication data analysis: Data from the primary screen and the host cell cytotoxicity screen are normalized to neutral (DMSO) […] inhibitor controls (2.5 μM Remdesivir for antiviral effect and 10 μM puromycin for infected host cell toxicity). For the uninfected host cell cytotoxicity counter-screen 40 μM puromycin is used as the positive control. Concentration response experiments will be tested in triplicate.

[5] = Severe acute respiratory syndrome coronavirus 2, Table 2, SARS-CoV-2 infected HeLa-ACE2 cells, read-out: CoV-2 HeLa EC50
[6] = Severe acute respiratory syndrome coronavirus 2, HeLa-ACE2, read-out: CoV-2 HeLa EC50, Table 2, SARS-CoV-2 infected HeLa-ACE2 cells
[7] = Table 2, uninfected cells, 24 hours, read-out: Uninfected HeLa-ACE2 CC50

Row | SMILES | EC50 [1] [nM] | EC50 [2, 5] [nM] | IC50 ([3]; Table 2, read-out: Enzyme IC50) [nM] | CC50 at 24 h [4] [nM] | EC50 [2, 6] [nM] | IC50 ([3]; Enzyme IC50, Table 2) [nM] | CC50 at 24 h [4, 7] [nM] | EC50 ([2]; Severe acute respiratory syndrome coronavirus 2, HeLa, read-out: CoV-2 HeLa EC50, Table 3) [nM] | IC50 ([3]; Enzyme IC50, Table 3, select example compounds against mpro) [nM]
1 | O=C(c1cncnc1)N1CCN(C(c2ccccc2)c2ccccc2)CC1 [AA-577, (4-benzhydrylpiperazin-1-yl)(pyrimidin-5-yl)methanone] | > 9610 | 8510 | 8300 | > 39800 | – | – | – | – | –
2 | O=C(c1cnccn1)N1CCN(C(c2ccccc2)c2ccccc2)CC1 [AA-579, (4-benzhydrylpiperazin-1-yl)(pyrazin-2-yl)methanone] | > 9610 | – | 7700 | > 39800 | > 9610 | – | – | – | –
3 | COc1cncc(C(=O)N2CCN(C(c3ccccc3)c3ccccc3)CC2)c1 [AA-589, (4-benzhydrylpiperazin-1-yl)(5-methoxypyridin-3-yl)methanone] | > 9610 | 1430 | 480 | > 39800 | – | – | – | – | –
4 | O=C(c1cncc(C(F)(F)F)c1)N1CCN(C(c2ccccc2)c2ccccc2)CC1 [AA-590, (4-benzhydrylpiperazin-1-yl)(5-(trifluoromethyl)pyridin-3-yl)methanone] | > 9610 | 4900 | 990 | > 39800 | – | – | – | – | –
5 | O=C(c1cncc(Cl)c1)N1CCN(C(c2ccccc2)c2ccccc2)CC1 [AA-591, (4-benzhydrylpiperazin-1-yl)(5-chloropyridin-3-yl)methanone] | > 9610 | 890 | 300 | > 39800 | – | – | – | – | –
6 | O=C(c1cncc(F)c1)N1CCN(C(c2ccccc2)c2ccccc2)CC1 [AA-592, (4-benzhydrylpiperazin-1-yl)(5-fluoropyridin-3-yl)methanone] | > 9610 | 2720 | 970 | > 39800 | – | – | – | – | –
7 | O=C(c1cccnc1)N1C2CCC1CN(C(c1ccccc1)c1ccccc1)C2 [AA-597, (3-benzhydryl-3,8-diazabicyclo[3.2.1]octan-8-yl)(pyridin-3-yl)methanone] | > 9610 | – | – | – | > 9610 | 3900 | > 39800 | – | –
8 | O=C(c1cccnc1)N1CCN(C(c2ccc(F)cc2)c2ccc(F)cc2)CC1 [AA-598, (4-(bis(4-fluorophenyl)methyl)piperazin-1-yl)(yridine-3-yl)methanone] | > 9610 | – | 1900 | > 39800 | > 9610 | – | – | – | –
9 | O=C(c1cncc(O)c1)N1CCN(C(c2ccccc2)c2ccccc2)CC1 [AA-599, (4-benzhydrylpiperazin-1-yl)(5-hydroxypyridin-3-yl)methanone] | > 9610 | 6030 | 1600 | > 39800 | – | – | – | – | –
10 | O=C(c1cnccc1Cl)N1CCN(C(c2ccccc2)c2ccccc2)CC1 [AA-605, (4-benzhydrylpiperazin-1-yl)(4-chloropyridin-3-yl)methanone] | 7160 | 3030 | 1300 | > 39800 | – | – | – | – | –
11 | O=C(c1cc(Br)cnc1Cl)N1CCN(C(c2ccccc2)c2ccccc2)CC1 [AA-606, (4-benzhydrylpiperazin-1-yl)(5-bromo-2-chloropyridin-3-yl)methanone] | > 9610 | – | > 10000 | > 39800 | > 9610 | – | – | – | –
12 | Cc1ccncc1C(=O)N1CCN(C(c2ccccc2)c2ccccc2)CC1 [AA-611, (4-benzhydrylpiperazin-1-yl)(4-methylpyridin-3-yl)methanone] | > 9610 | – | 2500 | > 39800 | > 9610 | – | – | – | –
13 | Cc1cncc(C(=O)N2CCC(N(c3ccccc3)c3ccccc3)CC2)c1 [AA-613, (4-(diphenylamino)piperidin-1-yl)(5-methylpyridin-3-yl)methanone] | > 9610 | – | 820 | > 39800 | > 9610 | – | – | – | –
14 | Cc1cncc(C(=O)N2CCN(C(c3ccccc3)c3ccc(F)cc3)CC2)c1 (stereo not shown) [AA-620, (4-((4-fluorophenyl)(phenyl)methyl)piperazin-1-yl)(5-methylpyridin-3-yl)methanone] | 841 | 717 | 260 | > 39800 | – | – | – | – | –
15 | CC(=O)Nc1cncc(C(=O)N2CCN(C(c3ccccc3)c3ccccc3)CC2)c1 [AA-624, N-(5-(4-benzhydrylpiperazine-1-carbonyl)pyridin-3-yl)acetamide] | > 9610 | 2620 | 890 | > 39800 | – | – | – | – | –
16 | Cc1cncc(C(=O)N2CC3CCC(C2)N3C(c2cccc(F)c2)c2cccc(F)c2)c1 [AA-625, (8-(bis(3-fluorophenyl)methyl)-3,8-diazabicyclo[3.2.1]octan-3-yl)(5-methylpyridin-3-yl)methanone] | 85 | – | – | – | 72 | 33 | 26500 | 72 | 4
17 | CC(=O)Nc1cccc(C(c2ccccc2)N2C3CCC2CN(C(=O)c2cncc(C)c2)C3)c1 (stereo not shown) [AA-627, N-(3-((3-(5-methylnicotinoyl)-3,8-diazabicyclo[3.2.1]octan-8-yl)(phenyl)methyl)phenyl)acetamide] | > 9610 | – | – | – | 3000 | 48 | > 39800 | – | –
18 | CNC(=O)c1cccc(C(c2ccccc2)N2C3CCC2CN(C(=O)c2cncc(C)c2)C3)c1 (stereo not shown) [AA-630, N-methyl-3-((3-(5-methylnicotinoyl)-3,8-diazabicyclo[3.2.1]octan-8-yl)(phenyl)methyl)benzamide] | 8560 | – | – | – | 7730 | 1370 | > 39800 | – | –
19 | CC(=O)Nc1cncc(C(=O)N2CC3CCC(C2)N3C(c2ccccc2)c2ccccc2)c1 [AA-633, N-(5-(8-benzhydryl-3,8-diazabicyclo[3.2.1]octane-3-carbonyl)pyridin-3-yl)acetamide] | 2770 | – | – | – | 1580 | 640 | > 39800 | – | –
20 | Cc1cncc(C(=O)N2CCN(C(c3ccccc3)c3ccccc3)CC2=O)c1 [AA-637, 4-benzhydryl-1-(5-methylnicotinoyl)piperazin-2-one] | > 9610 | – | 90 | > 39800 | > 9610 | – | – | – | –
21 | Cc1cnc(F)c(C(=O)N2CC3CCC(C2)N3C(c2ccccc2)c2ccccc2)c1 [AA-638, (8-benzhydryl-3,8-diazabicyclo[3.2.1]octan-3-yl)(2-fluoro-5-methylpyridin-3-yl)methanone] | 711 | – | – | – | 893 | 220 | > 39800 | – | –
22 | O=C(c1cncc2nc[nH]c12)N1CC2CCC(C1)N2C(c1ccccc1)c1ccccc1 [AA-642, (8-benzhydryl-3,8-diazabicyclo[3.2.1]octan-3-yl)(1H-imidazo[4,5-c]pyridin-7-yl)methanone] | 3240 | – | – | – | 1050 | 210 | > 39800 | – | –
23 | O=C(c1cncc2cc[nH]c12)N1CC2CCC(C1)N2C(c1ccccc1)c1ccccc1 [AA-643, (8-benzhydryl-3,8-diazabicyclo[3.2.1]octan-3-yl)(1H-pyrrolo[3,2-c]pyridin-7-yl)methanone] | 1050 | – | – | – | 348 | 58 | 21500 | – | –
24 | Cc1cncc(C(=O)N2CC3CCC(C2)N3C(c2ccccc2)c2ccccc2)n1 [AA-658, (8-benzhydryl-3,8-diazabicyclo[3.2.1]octan-3-yl)-(6-methylpyrazin-2-yl)methanone] | > 9610 | – | – | – | 1950 | 800 | > 39800 | – | –
25 | O=C(c1cccnc1)N1CCN(C(c2ccccc2)c2cccnc2)CC1 (stereo not shown) [MKP-1183, 1-[phenyl(pyridin-3-yl)methyl]-4-(pyridine-3-carbonyl)piperazine] | > 9610 | 4340 | 1700 | > 39800 | – | – | – | – | –
26 | O=C(c1cncc(F)c1)N1CCN(C(c2ccccc2)c2cccnc2)CC1 (stereo not shown) [MKP-1192, 1-(5-fluoropyridine-3-carbonyl)-4-[phenyl(pyridin-3-yl)methyl]piperazine] | > 9610 | 4830 | 1930 | > 39800 | – | – | – | – | –
27 | O=C(c1cncc(Cl)c1)N1CCN(C(c2ccccc2)c2cccnc2)CC1 (stereo not shown) [MKP-1193, 1-(5-chloropyridine-3-carbonyl)-4-[phenyl(pyridin-3-yl)methyl]piperazine] | > 9610 | 810 | 450 | > 39800 | – | – | – | – | –
28 | COc1cncc(C(=O)N2CCN(C(c3ccccc3)c3cccnc3)CC2)c1 (stereo not shown) [MKP-1194, 1-(5-methoxypyridine-3-carbonyl)-4-[phenyl(pyridin-3-yl)methyl]piperazine] | > 9610 | 2120 | 1100 | > 39800 | – | – | – | – | –
29 | O=C(c1cncc(C(F)(F)F)c1)N1CCN(C(c2ccccc2)c2cccnc2)CC1 (stereo not shown) [MKP-1195, 1-[phenyl(pyridin-3-yl)methyl]-4-[5-(trifluoromethyl)pyridine-3-carbonyl]piperazine] | > 9610 | 8770 | 2680 | > 39800 | – | – | – | – | –
30 | O=C(c1ccc(Cl)nc1)N1CCN(C2c3ccccc3CCc3ccccc32)CC1 [ZS-337, (6-chloro-3-pyridyl)-[4-(2-tricyclo[9.4.0.03,8]pentadeca-1(11),3(8),4,6,12,14-hexaenyl)piperazin-1-yl]methanone] | > 9610 | – | – | > 39800 | > 9610 | – | – | – | –
